Earlier results, collected in patent US20140348931A1, “SUSTAINED-RELEASE TOPIRAMATE FORMULATIONS” (CADILA HEALTHCARE LIMITED, priority 2013, published 2014).

Settings: in vivo

In the case of `CC1(C)OC2[C@@H](CO[C@@]3(COS(N)(=O)=O)OC(C)(C)O[C@@H]23)O1` (stereo partly drawn) [topiramate, 2, 3: 4, 5 Di-O-isopropylidene-β-D-fructopyranose sulfamate], the half-life is listed as 21 h.
